In US9987276B2 (Celgene CAR LLC, priority 2008, dated 2018):
Like-named read-outs stand apart in the source and are kept apart here.

What was measured:
[1] = biological target: T1, BTK (Homo sapiens (Human), UniProt Q06187); experiment: Omnia assay for potency assessment against BTK; type: biochemical; settings: [BTK]=5 nM, Omnia assay; read-out: BTK Inhibition (IC50)
Experimental: The modified BTK-optimized reagent conditions for the above protocol are:
[BTK]=5 nM, [ATP]=[…], [Y5-Sox]=[…] (ATP KMapp˜[…]).

[2] = biological target: EGFR-T790M/L858R (Homo sapiens (Human), UniProt P00533, L858R/T790M); experiment: Omnia assay for potency assessment against EGFR (T790M/L858R)
EGFR-T790M/L858R, sequence (P00533 25-1210 T790M/L858R): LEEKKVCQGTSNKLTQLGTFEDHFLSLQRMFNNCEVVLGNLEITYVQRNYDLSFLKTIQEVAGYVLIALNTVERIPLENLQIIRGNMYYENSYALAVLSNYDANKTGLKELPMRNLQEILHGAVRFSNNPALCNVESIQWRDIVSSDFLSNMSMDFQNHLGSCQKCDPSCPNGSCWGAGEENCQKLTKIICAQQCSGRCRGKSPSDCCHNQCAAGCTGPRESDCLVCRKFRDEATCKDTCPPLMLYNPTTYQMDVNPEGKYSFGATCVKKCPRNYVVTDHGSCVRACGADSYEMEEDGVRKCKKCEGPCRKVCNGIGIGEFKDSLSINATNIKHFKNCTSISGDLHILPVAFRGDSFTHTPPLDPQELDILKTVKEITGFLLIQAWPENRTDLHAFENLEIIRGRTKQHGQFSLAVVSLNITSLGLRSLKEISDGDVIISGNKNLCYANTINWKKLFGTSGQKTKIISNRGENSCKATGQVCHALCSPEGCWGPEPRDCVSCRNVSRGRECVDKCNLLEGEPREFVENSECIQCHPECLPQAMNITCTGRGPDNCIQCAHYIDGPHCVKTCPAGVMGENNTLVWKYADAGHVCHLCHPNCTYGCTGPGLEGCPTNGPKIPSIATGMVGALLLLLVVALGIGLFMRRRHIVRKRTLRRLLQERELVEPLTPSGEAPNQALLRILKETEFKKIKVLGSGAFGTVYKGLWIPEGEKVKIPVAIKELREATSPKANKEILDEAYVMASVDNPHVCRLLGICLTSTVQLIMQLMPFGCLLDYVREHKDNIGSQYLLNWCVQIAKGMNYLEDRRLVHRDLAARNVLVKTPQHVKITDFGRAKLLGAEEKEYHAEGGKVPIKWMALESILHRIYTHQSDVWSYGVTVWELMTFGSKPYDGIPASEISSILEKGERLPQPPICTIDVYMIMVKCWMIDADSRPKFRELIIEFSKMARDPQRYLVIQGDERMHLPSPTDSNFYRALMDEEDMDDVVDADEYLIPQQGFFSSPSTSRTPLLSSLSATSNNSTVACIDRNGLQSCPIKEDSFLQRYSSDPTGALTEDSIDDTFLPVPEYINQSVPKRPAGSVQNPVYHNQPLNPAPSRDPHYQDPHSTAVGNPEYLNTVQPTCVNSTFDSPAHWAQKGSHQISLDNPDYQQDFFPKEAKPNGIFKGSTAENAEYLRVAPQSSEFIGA

[3] = biological target: EGFR-WT (Homo sapiens (Human), UniProt P00533); experiment: Omnia assay for potency assessment against EGFR (WT)
EGFR-WT, sequence (P00533 668-1210): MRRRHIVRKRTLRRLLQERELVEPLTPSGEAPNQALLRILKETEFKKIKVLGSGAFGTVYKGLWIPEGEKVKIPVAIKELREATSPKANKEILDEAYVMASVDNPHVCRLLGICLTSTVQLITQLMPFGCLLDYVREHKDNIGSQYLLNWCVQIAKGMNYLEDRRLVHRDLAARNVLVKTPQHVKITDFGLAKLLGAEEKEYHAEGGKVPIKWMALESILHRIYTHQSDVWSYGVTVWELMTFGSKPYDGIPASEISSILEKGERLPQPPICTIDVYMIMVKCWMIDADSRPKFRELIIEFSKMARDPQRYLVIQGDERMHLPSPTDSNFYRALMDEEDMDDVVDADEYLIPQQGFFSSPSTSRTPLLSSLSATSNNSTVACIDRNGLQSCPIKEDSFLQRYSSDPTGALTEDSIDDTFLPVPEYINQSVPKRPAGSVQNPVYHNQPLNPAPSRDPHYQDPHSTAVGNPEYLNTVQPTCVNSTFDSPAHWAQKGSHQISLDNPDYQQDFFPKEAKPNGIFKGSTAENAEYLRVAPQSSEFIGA

[4] = biological target: BMX (Homo sapiens (Human), UniProt P51813); experiment: Omnia assay for potency assessment against active forms of BMX kinase; type: biochemical; settings: [BMX]=2.5 nM, [ATP]=100 μM, [Y5-Sox]=7.5 μM; read-out: BMX Inhibition
BMX, sequence (P51813 whole entry): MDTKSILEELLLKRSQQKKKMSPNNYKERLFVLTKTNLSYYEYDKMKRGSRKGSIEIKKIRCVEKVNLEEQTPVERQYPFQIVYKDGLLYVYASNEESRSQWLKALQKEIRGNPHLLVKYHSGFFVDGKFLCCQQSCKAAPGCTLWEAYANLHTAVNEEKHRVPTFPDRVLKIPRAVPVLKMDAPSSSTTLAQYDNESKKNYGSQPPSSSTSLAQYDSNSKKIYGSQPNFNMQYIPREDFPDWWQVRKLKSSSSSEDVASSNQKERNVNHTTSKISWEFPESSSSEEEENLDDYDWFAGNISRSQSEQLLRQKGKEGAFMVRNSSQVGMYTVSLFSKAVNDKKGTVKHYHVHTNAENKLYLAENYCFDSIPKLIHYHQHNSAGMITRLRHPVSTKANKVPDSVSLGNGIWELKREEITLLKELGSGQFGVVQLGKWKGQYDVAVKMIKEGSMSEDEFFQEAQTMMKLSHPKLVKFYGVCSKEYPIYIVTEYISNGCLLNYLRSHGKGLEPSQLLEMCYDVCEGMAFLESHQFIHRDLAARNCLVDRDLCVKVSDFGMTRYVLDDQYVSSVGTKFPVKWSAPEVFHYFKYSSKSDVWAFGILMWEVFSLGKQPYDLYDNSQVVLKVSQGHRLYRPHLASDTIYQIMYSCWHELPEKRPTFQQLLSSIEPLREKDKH
Experimental: Briefly, 10× stocks of EGFR-WT (PV3872) from Invitrogen and EGFR-T790M/L858R (40350) from BPS Bioscience, San Diego, Calif., 1.13×ATP (AS001A) and appropriate Tyr-Sox conjugated peptide substrates (KCZ1001) were prepared in 1× kinase reaction buffer consisting of 20 mM Tris, pH 7.5, 5 mM MgCl2, 1 mM EGTA, 5 mM β-glycerophosphate, 5% glycerol (10× stock, KB002A) and 0.2 mM DTT (DS001A).
This example describes continuous-read kinase assays to measure inherent potency of compound against active forms of BMX enzymes as described in Example 251 above except that the modified BMX-optimized reagent conditions are:
[BMX]=2.5 nM, [ATP]=100 μM, [Y5-Sox]=7.5 μM (ATP KMapp=107 μM).

[5] = biological target: ITK (Homo sapiens (Human), UniProt Q08881); experiment: Omnia assay for potency assessment against active forms of ITK kinase; type: biochemical; settings: [ITK]=10 nM, [ATP]=25, [Y6-Sox]=10 μM; read-out: ITK Inhibition
ITK, sequence (Q08881 whole entry): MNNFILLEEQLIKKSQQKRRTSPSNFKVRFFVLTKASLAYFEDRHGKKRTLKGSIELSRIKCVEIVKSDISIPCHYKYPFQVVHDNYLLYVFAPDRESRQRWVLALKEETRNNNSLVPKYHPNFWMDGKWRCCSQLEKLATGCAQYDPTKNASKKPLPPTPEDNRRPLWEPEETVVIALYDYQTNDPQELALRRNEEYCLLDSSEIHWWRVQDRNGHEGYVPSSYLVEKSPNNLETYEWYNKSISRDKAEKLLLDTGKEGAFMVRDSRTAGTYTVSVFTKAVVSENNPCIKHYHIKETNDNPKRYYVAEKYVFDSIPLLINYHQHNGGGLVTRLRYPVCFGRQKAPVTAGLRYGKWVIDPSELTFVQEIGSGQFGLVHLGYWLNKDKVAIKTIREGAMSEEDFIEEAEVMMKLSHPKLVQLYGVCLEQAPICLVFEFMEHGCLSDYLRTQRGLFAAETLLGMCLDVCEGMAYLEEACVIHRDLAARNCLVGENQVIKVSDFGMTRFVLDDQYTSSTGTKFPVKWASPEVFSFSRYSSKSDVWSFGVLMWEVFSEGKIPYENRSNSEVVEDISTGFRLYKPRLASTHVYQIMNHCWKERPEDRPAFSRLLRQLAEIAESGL
Experimental: [ITK]=10 nM, [ATP]=25 [Y6-Sox]=10 μM (ATP KMapp=33 μM).

[6] = biological target: T1, BTK; experiment: BTK Ramos cellular assay (PLCγ2 phosphorylation); type: cell-based; settings: Ramos cells, 1 hour compound, anti-IgM stimulation, p-PLCγ2; read-out: BTK Inhibition (IC50), BTK Ramos cellular inhibition
Experimental: Ramos cells were grown in suspension in T225 flasks, spun down, resuspended in 50 ml serum-free media and incubated for 1 hour. […] Ramos cells were incubated with compound for 1 hour, washed again and resuspended in 100 ul serum-free media. Cells were then stimulated with 1 μg of goat F(ab′)2 Anti-Human IgM and incubated on ice for 10 minutes to activate B cell receptor signaling pathways. After 10 minutes, the cells were washed once with PBS and then lysed on ice with Invitrogen Cell Extraction buffer. 16 μg total protein from lysates were loaded on gel and blots were probed for phosphorylation of the BTK substrate PLCγ2.

[7] = read-out: EGFR (wild type inhibition), EGFR wild type

T1 sequence (Q06187 whole entry): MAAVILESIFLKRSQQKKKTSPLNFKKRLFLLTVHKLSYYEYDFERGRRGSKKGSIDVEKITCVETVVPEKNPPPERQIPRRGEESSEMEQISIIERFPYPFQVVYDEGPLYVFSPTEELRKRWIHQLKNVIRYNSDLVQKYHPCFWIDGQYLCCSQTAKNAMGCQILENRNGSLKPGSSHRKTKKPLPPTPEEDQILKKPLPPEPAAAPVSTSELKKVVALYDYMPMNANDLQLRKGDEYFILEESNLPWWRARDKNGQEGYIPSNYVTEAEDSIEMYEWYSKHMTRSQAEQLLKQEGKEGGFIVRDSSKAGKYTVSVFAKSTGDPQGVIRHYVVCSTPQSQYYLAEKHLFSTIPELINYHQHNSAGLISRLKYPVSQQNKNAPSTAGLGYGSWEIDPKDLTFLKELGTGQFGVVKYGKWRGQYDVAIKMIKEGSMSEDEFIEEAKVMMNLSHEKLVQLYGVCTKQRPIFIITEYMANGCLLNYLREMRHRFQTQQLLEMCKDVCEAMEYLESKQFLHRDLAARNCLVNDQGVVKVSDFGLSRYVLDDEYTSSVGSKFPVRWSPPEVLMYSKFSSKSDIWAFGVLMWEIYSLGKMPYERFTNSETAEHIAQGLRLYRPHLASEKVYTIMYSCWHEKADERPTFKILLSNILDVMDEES

C=CC(=O)Nc1cccc(Nc2ncc(C)c(Nc3ccccc3)n2)c1 [Compound I-5, N-(3-(5-methyl-4-(phenylamino)pyrimidin-2-ylamino)phenyl) acrylamide]
IC50 [1]: < 10 nM
IC50 ([2]; read-out: EGFR (T790M/L858R), EGFR mutant T790M/L858R): < 10 nM
IC50 [3, 7]: < 10 nM

C=CC(=O)Nc1cccc(Nc2nc(Nc3ccc4c(c3)N(C)CCO4)ncc2F)c1 [Compound I-126, N-(3-(2-(4-methyl-2,3-dihydrobenzo[1,4]oxazin-6-yl)amino-5-fluoropyrimidin-4-ylamino)phenyl)acrylamide]
IC50 [4]: < 10 nM
IC50 [5]: 10 to 100 nM
IC50 [6]: 10 to 100 nM
IC50 [1]: < 10 nM
IC50 [3]: 10 to 100 nM

C=CC(=O)Nc1cccc(Nc2nc(Nc3ccc(OC)c(OC)c3)ncc2F)c1 [Compound I-134, 4-(3acrylamidophenylamino)-5-fluoro-2-(3,4-dimethoxyphenylamino)-pyrimidine]
IC50 [4]: < 10 nM
IC50 [5]: 10 to 100 nM
IC50 [6]: 10 to 100 nM
IC50 [1]: < 10 nM
IC50 [3]: 10 to 100 nM

C=CC(=O)Nc1cccc(Oc2nc(Nc3ccc(OCCOC)cc3)ncc2C2CC2)c1 [Compound I-131, N-(3-(5-cyclopropyl-2-(4-(2-methoxyethoxy)phenylamino)pyrimidin-4-yloxy)phenyl)acrylamide]
IC50 [4]: < 10 nM
IC50 [5]: < 10 nM
IC50 [6]: < 10 nM
IC50 [1]: < 10 nM
IC50 [3, 7]: < 10 nM

C=CC(=O)Nc1cccc(Nc2nc(Nc3cc(OC)c(OC)c(OC)c3)ncc2F)c1 [Compound I-133, 4-(3-acrylamidophenylamino)-5-fluoro-2-(3,4,5-trimethoxyphenylamino)-pyrimidine]
IC50 [4]: < 10 nM
IC50 [5]: 100 to 1000 nM
IC50 [6]: 10 to 100 nM
IC50 [1]: < 10 nM
IC50 [3]: 100 to 1000 nM

C=CC(=O)N1CCCC(Nc2nc(Nc3ccccc3)ncc2C)C1 (stereo not drawn) [Compound I-27]
IC50 [4]: < 10 nM
IC50 [5]: 10 to 100 nM
IC50 [6]: 10 to 100 nM
IC50 [1]: < 10 nM
IC50 [3]: 10 to 100 nM

C=CC(=O)Nc1cccc(Nc2nc(Nc3cccc(OCCCNC(=O)OC(C)(C)C)c3)ncc2C)c1 [Compound I-45, tert-butyl 3-(3-(4-(3-acrylamidophenylamino)-5-methylpyrimidin-2-ylamino)phenoxy)propylcarbamate]
IC50 [4]: < 10 nM
IC50 [5]: 10 to 100 nM
IC50 [6]: < 10 nM
IC50 [1]: < 10 nM
IC50 [3]: 100 to 1000 nM

C=CC(=O)N1CCOc2ccc(Nc3nc(Nc4ccc5c(c4)CC(=O)N5)ncc3C(C)=O)cc21 [Compound I-129, 5-[5-Acetyl-4-(4-acryloyl-3,4-dihydro-2H-benzo[1,4]oxazin-6-ylamino)-pyrimidin-2-ylamino]-1,3-dihydro-indol-2-one]
IC50 [4]: < 10 nM
IC50 [5]: < 10 nM
IC50 [6]: < 10 nM
IC50 [1]: < 10 nM
IC50 [3]: 10 to 100 nM

Cc1cnc(Nc2cccc(S(N)(=O)=O)c2)nc1Nc1ccc2c(c1)CCN(S(=O)(=O)C1CC1)C2 [Compound I-10, 3-(4-(2-(cyclopropylsulfonyl)-1,2,3,4-tetrahydroisoquinolin-6-ylamino)-5-methylpyrimidin-2-ylamino)benzenesulfonamide]
IC50 [1]: 100 to 1000 nM
IC50 [2]: 10 to 100 nM

C=CC(=O)N1CCC[C@@H](Nc2nc(Nc3cccc(OCCN4CCOCC4)c3)ncc2F)C1 [Compound I-135, (R)-1-(3-(5-fluoro-2-(3-(2-morpholinoethoxy)phenylamino)pyrimidin-4-ylamino)piperidin-1-yl)prop-2-en-1-one]
IC50 [4]: < 10 nM
IC50 [5]: 10 to 100 nM
IC50 [6]: 10 to 100 nM
IC50 [1]: < 10 nM
IC50 [3]: 10 to 100 nM

C=CC(=O)Nc1cccc(Nc2nc(Nc3ccc(OC)nc3)ncc2C(N)=O)c1 [Compound I-209, 4-(3-acrylamidophenylamino)-2-(6-methoxypyridin-3-ylamino)pyrimidine-5-carboxamide]
IC50 [5]: < 10 nM
IC50 [6]: 10 to 100 nM
IC50 [1]: < 10 nM
IC50 [3]: 10 to 100 nM

C=CC(=O)Nc1cccc(Nc2nc(Nc3ccc4c(c3)N(C(=O)C(F)(F)F)CCO4)ncc2F)c1 [Compound I-143, N-(3-(2-(4-trifluoroacetyl-2,3-dihydrobenzo[1,4]oxazin-6-yl)amino-5-fluoropyrimidin-4-ylamino)phenyl)acrylamide]
IC50 [5]: 10 to 100 nM
IC50 [6]: < 10 nM
IC50 [1]: < 10 nM
IC50 [3]: 10 to 100 nM

C=CC(=O)Nc1cccc(Nc2nc(Nc3ccc(OCCOC)nc3)ncc2F)c1 [Compound I-103, N-(3-(5-fluoro-2-(6-(2-methoxyethoxy)pyridine-3-ylamino)pyrimidin-4-ylamino)phenyl)acrylamide]
IC50 [5]: 10 to 100 nM
IC50 [6]: < 10 nM
IC50 [1]: < 10 nM
IC50 [3]: 10 to 100 nM

C=CC(=O)Nc1cccc(Nc2nc(Nc3ccccc3)ncc2C#N)c1 [Compound I-157, N-(3-(5-cyano-2-(phenylamino)pyrimidin-4-ylamino)phenyl)acrylamide]
IC50 [5]: < 10 nM
IC50 [6]: < 10 nM
IC50 [1]: < 10 nM
IC50 [3, 7]: < 10 nM

C=CC(=O)Nc1cccc(Nc2nc(Nc3cccc(OCCO)c3)ncc2F)c1 [Compound I-105, N-(3-(5-fluoro-2-(3-(2-hydroxyethoxy)phenylamino)pyrimidin-4-ylamino)phenyl)acrylamide]
IC50 [5]: 10 to 100 nM
IC50 [6]: < 10 nM
IC50 [1]: < 10 nM
IC50 [3]: 10 to 100 nM

C=CC(=O)Nc1cccc(Nc2ncc(C)c(Nc3ccc(Oc4ccccc4)cc3)n2)c1 [Compound I-23, N-(3-(5-methyl-4-(4-phenoxyphenylamino)pyrimidin-2-ylamino)phenyl)acrylamide]
IC50 [2]: 10 to 100 nM
IC50 [3]: 100 to 1000 nM

C=CC(=O)Nc1cccc(Nc2nc(Nc3cccc(S(N)(=O)=O)c3)ncc2C)c1 [Compound I-33, N-(3-(5-methyl-2-(3-sulfamoylphenylamino)pyrimidin-4-ylamino)phenyl)acrylamide]
IC50 [4]: < 10 nM
IC50 [5]: < 10 nM
IC50 [6]: < 10 nM
IC50 [1]: < 10 nM
IC50 [3, 7]: < 10 nM

C=CC(=O)Nc1cccc(Nc2nc(Nc3ccc(OC)nc3)ncc2C(C)=O)c1 [Compound I-189, N-{3-[5-Acetyl-2-(6-methoxy-pyridin-3-ylamino)-pyrimidin-4-ylamino]-phenyl}-acrylamide]
IC50 [5]: < 10 nM
IC50 [6]: 10 to 100 nM
IC50 [1]: < 10 nM
IC50 [3]: 10 to 100 nM

C=CC(=O)Nc1cccc(Nc2nc(Nc3cccc(OCCN(C)C)c3)ncc2F)c1 [Compound I-233, N-(3-(2-(3-(2-(dimethylamino)ethoxy)phenylamino)-5-fluoropyrimidin-4-ylamino)phenyl)acrylamide]
IC50 [5]: < 10 nM
IC50 [6]: < 10 nM
IC50 [1]: < 10 nM
IC50 [3, 7]: < 10 nM

C=CC(=O)Nc1cccc(Nc2nc(Nc3ccccc3)ncc2C(F)(F)F)c1 [Compound I-245, N-(3-(5-trifluoromethyl-2-(phenylamino)pyrimidin-4-ylamino)phenyl)acrylamide]
IC50 [4]: < 10 nM
IC50 [5]: < 10 nM
IC50 [6]: < 10 nM
IC50 [1]: < 10 nM
IC50 [3, 7]: < 10 nM

C=CC(=O)Nc1cccc(Nc2nc(Nc3ccc(Cl)c(OCCOC)c3)ncc2F)c1 [Compound I-321, N-(3-(2-(4-chloro-3-(2-methoxyethoxy)phenylamino)-5-fluoropyrimidin-4-ylamino)phenyl)acrylamide]
IC50 [5]: 100 to 1000 nM
IC50 [6]: < 10 nM
IC50 [1]: < 10 nM
IC50 [3]: 100 to 1000 nM

C=CC(=O)N1CCc2cc(Nc3nc(Nc4cccc(S(N)(=O)=O)c4)ncc3C)ccc2C1 [Compound I-40, 3-(4-(2-acryloyl-1,2,3,4-tetrahydroisoquinolin-6-ylamino)-5-methylpyrimidin-2-ylamino)benzenesulfonamide]
IC50 [4]: < 10 nM
IC50 [5]: < 10 nM
IC50 [6]: 10 to 100 nM
IC50 [1]: < 10 nM

C=CC(=O)Nc1cccc(Oc2nc(Nc3ccc(OC)nc3)ncc2C(C)=O)c1 [Compound I-188, N-{3-[5-Acetyl-2-(6-methoxy-pyridin-3-ylamino)-pyrimidin-4-yloxy]-phenyl}-acrylamide]
IC50 [5]: < 10 nM
IC50 [6]: < 10 nM
IC50 [1]: < 10 nM
IC50 [3, 7]: < 10 nM

C=CC(=O)Nc1cccc(Nc2nc(Nc3ccc(OC)nc3)ncc2C2CC2)c1 [Compound I-167, N-(3-(5-cyclopropyl-2-(6-methoxypyridin-3-ylamino)pyrimidin-4-ylamino)phenyl)acrylamide]
IC50 [5]: < 10 nM
IC50 [6]: 10 to 100 nM
IC50 [1]: < 10 nM
IC50 [3, 7]: < 10 nM
